Entries after “also recorded” stand apart in the source; their conditions may differ.
Assays:
[1] = tested on: hepatic mitochondria; assay: Oxygen consumption rates of hepatic mitochondria harvested after in vivo treatment (Seahorse XF24); parameters: species or system dog; settings: treated septic dogs; for coupled respiration (OCR after ADP) of hepatic mitochondria: ADP 4 mM; for maximal (uncoupled) respiration (OCR after FCCP) of hepatic mitochondria: FCCP 4 uM
Description: After completion of the in-vivo measurements, we administered sodium pentobarbital (110 mg/kg) to euthanize the animal. In a subset of animals of each group, we immediately harvested a piece of liver and isolated the mitochondria as described by Schnaitman and Greenawalt (23). Briefly, we minced the extracted liver in mitochondrial isolation buffer (MSHE) that includes 70 mM sucrose, 210 mM mannitol, 5 mM HEPES, 1 mM EGTA, and fatty acid free bovine serum albumin (BSA). We then disrupted the tissue using a drill-driven glass/Teflon dounce homogenizer. We centrifuged the homogenate three times, after which we re-suspended the final pellet in a minimal volume of MSHE+BSA and determined protein (mg/ml). We diluted the mitochondrial preparation in cold mitochondrial assay solution (MAS) that contained 70 mM sucrose, 220 mM mannitol, 10 mM KH2PO4, 5 mM MgCl2, 2 mM HEPES, 1 mM EGTA, and BSA for plating directly onto the custom Seahorse 24-well culture dish (˜20 ug mitochondrial protein/50 ul per well; see further below). After centrifugation of the plate and addition of appropriate substrates, we viewed the mitochondria under a microscope to ensure consistent adherence to the well. We then transferred the plate to the XF24 Analyzer for initiation of the protocol as described below (17).
To examine mitochondrial function in this model, we used a novel new technology that is capable of measuring dynamic changes in mitochondrial function, not easily attainable by other technologies (17). The Seahorse® XF24 extracellular flux analyser (Seahorse Bioscience, MA, USA) refines the technology by which mitochondrial oxygen consumption can be measured. This technology uses a piston to reversibly enclose a small volume (7 ul) above the mitochondria that can monitor oxygen uptake in that volume for 2-5 min, then raises the piston, allowing the bulk incubation medium (˜1 ml) to re-equilibrate. The ability to make up to 4 additions during the experiment allows mitochondrial respiration to be measured under various metabolic conditions. This piece of equipment has never been used to measure mitochondrial function in SS.
In this protocol, we sequentially measured mitochondrial function under various metabolic conditions (17). To obtain basal OCR, we first added a substrate to the preparation that contained pyruvate (10 mM) and malate (2 mM). We then added ADP (adenosine-diphosphate; 4 mM) that allows ATP synthase to function, producing an increase in OCR (coupled OCR) that is termed “state3ADP”. When the ATP/ADP ratio approaches equilibrium, pmf rises, after which proton reentry through the synthase stops and respiration slows. We terminated coupled respiration (i.e. state3ADP) by the addition of the ATP synthase inhibitor oligomycin (2.0 uM) in which we achieved “stateoligomycin” where ATP recycling cannot contribute and there is a stable decrease in OCR. We then added the protonophore, FCCP (4 uM; carbonyl cyanide p-trifluoromethoxy-phenylhydrazone). FCCP leads to uncoupled respiration in which we previously titrated the concentration of FCCP to yield a maximal effect. In mitochondria in which ATP synthase activity is a limiting factor, uncoupled respiration may be greater than coupled respiration. […] We finally added rotenone (R; 2 uM) and antimycin A (AA; 2 uM) which are inhibitors of the electron transport chain (ETC) complexes, I and III, respectively. When added to the mitochondrial preparation, these inhibitors produce a marked decline in mitochondrial respiration since the electron transport chain is inhibited.
With each treatment group, we obtained measurements of basal OCR, coupled OCR (i.e. state3ADP), and maximal OCR. In addition, we calculated coupled and uncoupled respiratory control ratios from state3ADP/stateoligomycin and uncoupled respiration/state FCCP/stateoligomycin, respectively. […]

[2] = pH in unbuffered solution; type: physicochemical
[3] = listed as gentisic, sodium salt

SMILES	coupled respiration (OCR after ADP) of hepatic mitochondria [1, 3]	coupled respiration (OCR after ADP) of hepatic mitochondria ([1]; sodium salt)	maximal (uncoupled) respiration (OCR after FCCP) of hepatic mitochondria [1]	augmented respiratory capacity (uncoupled minus coupled respiration) [1, 3]	basal respiration (basal OCR) of hepatic mitochondria ([1]; pyruvate and malate substrate)	pH in unbuffered solution [2]	coupled respiration (OCR after ADP) of hepatic mitochondria [1]
O=C([O-])c1cc(O)ccc1O.[Na+] [GSS, 2,5-dihydroxybenzoic acid sodium salt]	significantly greater than the other groups; also recorded: large increase in coupled respiration	greater response to ADP as compared to the other groups	increase maximal OCR	lowest; also recorded: reduction in augmented respiratory capacity	restoring basal respiration to the non-septic control value	8.2	
O=C(O)c1cc(O)c(O)c(O)c1 [gallic acid, 3,4,5 trihydroxybenzoic acid]			restored the reduction in maximal respiration			4.2	not different from values found in the non-septic control group

Source: patent US9833425B2, “Gentisic acid is used to improve systemic hemodynamics, hepatic mitochondrial function and lactate acidemia in patients with septic shock” (priority 2015, dated 2017)
